According to patent US12404304B1, “Telomerase reverse transcriptase (TERT) expression enhancing compounds and methods for using the same” (Sierra Sciences, LLC, priority 2007, dated 2025):
Read-outs that look alike come from different tables or passages of the source.

What was measured:
viable cells in culture = test: Cell viability assay (CellTiter-Glo Luminescent Cell Viability Assay, ATP quantitation, percent of vehicle control)
[1] = system: human TERT expression (hTERT mRNA); test: Quantitative real-time RT-PCR of hTERT mRNA expression (Ct, transcripts) in compound-treated cells; format: cell-based
Outline: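 Read-out is cycle threshold, the cycle at which probe fluorescence released by Taq 5′-nuclease activity crosses a set level; Ct falls as hTERT mRNA rises. cDNA of treated and untreated cells was compared, with starting transcripts quantified against a known-cDNA standard curve.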

| Compound | Average Cell Viability after 24 Hours (% DMSO) (viable cells in culture) | Average Number of hTERT Transcripts ([1]; quantitative real-time RT-PCR) | Average Number of hTERT Transcripts [1] |
| --- | --- | --- | --- |
| CCOc1ccc(N2C(=O)CC(N3CCC4(CC3)OCCO4)C2=O)cc1 (centres unmarked) [compound 1360] | 108.82 | 16.98 |  |
| CSc1nc2nc(C)c(C(C)=O)c(C)n2n1 [compound 1361] | 109.24 | 17.57 |  |
| CCCOc1ccc2c(c1)c1c3n2CCN(C)C3=NCC1 [compound 1362] | 75.90 | 15.20 |  |
| CC1(C)CC(NC(=O)c2ccc(S(=O)(=O)N3CCOCC3)cc2)CC(C)(C)N1 [compound 1363] | 89.56 | 32.11 |  |
| Cc1ccc(N2CC(C(=O)N3CC(C)CC(C)C3)CC2=O)c(C)c1 (centres unmarked) [compound 1364] | 104.57 | 9.06 |  |
| Cc1ccc(N2CC(C(=O)N3CCCC3)CC2=O)c(C)c1 (centres unmarked) [compound 1365] | 99.89 | 10.67 |  |
| CCc1nc2[nH]c3c(c(=O)n2n1)CCC3 [compound 1366] | 99.48 | 10.02 |  |
| Nc1ccc(OCCCc2ccccc2)cc1 [compound 1367] | 94.27 | 7.25 |  |
| C=C(C)Cn1c(CCO)nc2ccccc21 [compound 1368] | 106.63 | 9.25 |  |
| Cc1nn2c(-c3cccnc3)nnc2s1 [compound 1369] | 98.38 | 15.35 |  |
| C=CCNS(=O)(=O)c1ccc(C(=O)N2CCCCC2C)cc1 (centres unmarked) [compound 1370] | 107.18 |  | 11.58 |
| CCC(=O)Nc1c(Br)cc(C)cc1C(=O)O [compound 1371] | 105.87 |  | 5.46 |
| O=S(=O)(Nc1cccc2cccnc12)N1CCCCCC1 [compound 1373] | 65.74 |  | 37.20 |
| Cc1ccccc1NC(=O)C1CC(Cl)=CCC1C(=O)O (centres unmarked) [compound 1374] | 107.65 |  | 5.48 |
| CCC(C)NC(=S)Nc1ccc([N+](=O)[O-])cc1 (centres unmarked) [compound 1375] | 92.06 |  | 11.45 |
| Cc1ccccc1NC(=O)C1CCN(S(=O)(=O)c2ccc(Br)cc2)CC1 [compound 1376] | 88.77 |  | 4.72 |
| CC(C)C(=O)NC(c1ccc(C(C)C)cc1)c1ccc2ccccc2c1O (centres unmarked) [compound 1377] | 67.09 |  | 10.23 |
| CCC(C)c1ccccc1OCCCCN1CCN(C)CC1 (centres unmarked) [compound 1378] | 89.06 |  | 11.15 |
| O=C(O)c1ccc(NC(=S)NC(=O)c2cccc(Cl)c2)cc1 [compound 1379] | 82.14 |  | 12.37 |
| Brc1cccc(OCCCN2CCCCC2)c1 [compound 1380] | 104.34 |  | 5.98 |
| COc1ccc(C(=O)NC(=S)Nc2ccc(C(=O)O)cc2)cc1 [compound 1381] | 87.38 |  | 8.62 |
| COc1ccc(OCCCN2CCN(c3ccccc3OC)CC2)cc1 [compound 1382] | 98.31 |  | 6.08 |
| O=C(O)c1ccc(NC(=S)NC(=O)c2cccc3ccccc23)cc1 [compound 1383] | 74.00 |  | 53.78 |
| O=C(O)c1ccc(NC(=S)NC(=O)c2ccccc2I)cc1 [compound 1384] | 84.52 |  | 7.88 |
| O=[N+]([O-])c1ccc(S(=O)(=O)Nc2cc(Cl)ccc2O)cc1 [compound 1385] | 78.86 |  | 21.71 |
| O=C(Nc1ccc(OC(F)(F)C(F)F)cc1)c1ccccc1O [compound 1386] | 30.71 |  | 11.93 |
| COC(=O)COc1ccc(CSc2nnc(-c3ccc(Cl)cc3)n2-c2ccccc2)cc1 [compound 1388] | 29.68 |  | 42.56 |
| CN1CCCC(OC(=O)COc2ccc(F)cc2)C1 (centres unmarked) [compound 1389] | 93.93 |  | 9.17 |

| Compound | Average Cell Viability after 24 Hours (% DMSO) (viable cells in culture) | Average Number of hTERT Transcripts ([1]; quantitative real-time RT-PCR) | Average Number of hTERT Transcripts [1] |
| --- | --- | --- | --- |
| Cc1ccc(C)c(OCC(=O)Nc2cc(Cl)c(Cl)cc2Cl)c1 [compound 1390] | 106.51 |  | 4.81 |
| CC(=O)Nc1ccccc1NS(=O)(=O)c1cccs1 [compound 1391] | 87.67 |  | 4.95 |
| CCC(C)NC(=S)Nc1ccc(F)cc1 (centres unmarked) [compound 1392] | 102.61 |  | 4.99 |
| O=C(CCc1ccccc1)NC(c1ccc([N+](=O)[O-])cc1)c1c(O)ccc2ccccc12 (centres unmarked) [compound 1393] | 62.25 |  | 23.22 |
| CCn1c(=S)[nH]c2scc(-c3ccc(OC)cc3)c2c1=O [compound 1394] | 100.14 |  | 7.00 |
| O=C(Nc1nc2ccc([N+](=O)[O-])cc2s1)c1cncc(Br)c1 [compound 1395] | 63.84 |  | 39.44 |
| Cc1cc(OCC(=O)Nc2ccc(S(=O)(=O)Nc3nccs3)cc2)ccc1C(C)C [compound 1396] | 88.25 |  | 12.14 |
| O=C(Oc1ccc([N+](=O)[O-])cc1)c1cc(S(=O)(=O)N2CCOCC2)cs1 [compound 1397] | 96.05 |  | 5.00 |
| CCCCN(CC)C(=O)CSc1ccccc1 [compound 1398] | 87.02 |  | 8.01 |
| COC(=O)COc1ccc2c(=O)c(Oc3ccc(-c4ccccc4)cc3)coc2c1 [compound 1400] | 80.39 |  | 12.41 |
| O=C(CSc1nc2ccccc2c(=O)n1-c1ccc(Cl)cc1)Nc1cccc(Cl)c1 [compound 1401] | 96.20 |  | 7.24 |
| Cc1oc2cc(OCC(=O)OCc3ccccc3)ccc2c(=O)c1Oc1ccccc1 [compound 1402] | 86.55 |  | 29.82 |
| COc1cc(C2C(C(=O)c3ccc(C)o3)=C(O)C(=O)N2CCCN2CCOCC2)cc(OC)c1OC (centres unmarked) [compound 1403] | 95.26 |  | 9.95 |
| COC(=O)c1ccc(NC(=O)CSc2nnc(CNC(=O)c3ccccc3)n2C)cc1 [compound 1404] | 104.14 |  | 10.87 |
| CCn1c(COc2ccc(C(C)C)cc2)nnc1SCC(=O)Nc1nccs1 [compound 1405] | 110.82 |  | 3.33 |
| COc1ccc(C2CC(=O)C3=C(C2)Nc2ccccc2N(C(=O)CCC(=O)O)C3c2cccnc2)cc1OC (centres unmarked) [compound 1406] | 105.29 |  | 4.62 |
| Cc1nn(-c2cc(N3CCN(S(=O)(=O)c4ccc(Cl)cc4)CC3)ccc2[N+](=O)[O-])c(=O)c2ccccc12 [compound 1407] | 109.75 |  | 3.38 |
| O=C(NC(c1ccccc1)c1ccc(Br)cc1)c1cccc(F)c1 (centres unmarked) [compound 1408] | 89.70 |  | 3.47 |
| COc1ccc(-c2nnc(SCC(=O)Nc3ccc(S(N)(=O)=O)cc3)o2)cc1 [compound 1409] | 86.13 |  | 18.63 |
| O=C(Nc1nc(COc2ccccc2)cs1)c1sc2cc(Cl)ccc2c1Cl [compound 1410] | 75.12 |  | 8.90 |
| CC(C)(C)c1ccc(C(=O)NC(=S)Nc2c(Cl)cc(Cl)cc2Cl)cc1 [compound 1411] | 92.66 |  | 10.04 |
| CCOC(=O)c1ccc(NC(=O)CSc2nnc(-c3ccc(OC)cc3)o2)cc1 [compound 1412] | 92.98 |  | 6.19 |
| CCOC(=O)COc1ccc(S(=O)(=O)Nc2ccc(C(=O)OC)cc2)cc1 [compound 1413] | 80.11 |  | 25.20 |
| COC(=O)COc1ccc(NC(=O)c2ccc(F)cc2)cc1 [compound 1414] | 69.42 |  | 203.88 |
| COC(=O)COc1ccc(S(=O)(=O)N(C)Cc2ccccc2)cc1 [compound 1415] | 79.96 |  | 30.51 |
| COc1ccc(OC)c(N(C(=O)Cc2ccccc2)c2nc(-c3ccc(C)cc3)c(C)s2)c1 [compound 1416] | 95.26 |  | 15.42 |
| COc1ccc(C(=O)NC(=S)Nc2ccc(Nc3ccccc3)cc2)cc1Br [compound 1417] | 92.17 |  | 5.13 |
